Reference: a melting point compilation (Tetko et al.)

melting point [°C] | Compound
60 | CC(C)(CC(=O)O)c1ccccc1
179 to 182 | O=C(O)c1cc(F)ccc1O
7 | CCOC(=O)C=Cc1ccccc1
79 | CCOc1ccccc1NC(C)=O
236 to 238 | C/C(=N\c1ccc(C(=O)O)cc1)c1c(O)c2ccccc2n(-c2ccccc2)c1=O
196 to 200 | Nc1ccccc1C(=O)c1ccccc1C(=O)O
178 to 179 | O=[N+]([O-])c1ccc(-c2ccc(/N=N/c3ccccc3)cc2)cc1
181 | COc1ccc(C(=O)c2coc(S(N)(=O)=O)c2)cc1
144 | NS(=O)(=O)c1cccc(C(=O)c2ccccc2)c1
68 to 71 | O=Cc1cnc2ccccc2c1
176 | CCCOC(=O)C1=C(C)NC(=O)NC1c1ccccc1 (centres undefined)
67 to 68 | CC(=O)c1sc(-c2ccccc2)nc1C
83 | Cc1ccc(O)c(C(O)Cc2ccccc2)c1 (centres undefined)
96 | CC(=O)Nc1ccccc1C(F)(F)F
37 | O=C(OCCO)c1ccccc1O
223 | CC(=O)Nc1ccc(Br)cc1C(=O)O
> 270 | Nc1nnc(-c2ccccc2)s1
70 to 74 | O=C(O)[C@H]1COCN1C(=O)OCc1ccccc1
100 | O=C(Cl)c1csc(-c2ccccc2)n1
52 | O=C(OCc1ccccc1)c1sc(Cl)nc1C(F)(F)F
206 | NS(=O)(=O)c1ccc(N2C(=O)CC(c3ccccc3)C2=O)c(Cl)c1 (centres undefined)
149 to 153 | O=C(O)C1(c2cccc(F)c2)CCCC1
121 | c1ccc(-c2nccnc2-c2ccccc2)cc1
202 to 207 | CC(=O)Nc1cc(Cl)ccc1C(=O)O
-22.4 | CCCCOC(=O)c1ccccc1
158 | O=C(/C(=N/Nc1ccc(Br)cc1)S(=O)(=O)c1ccccc1)c1cccs1
134 | O=C(O)c1ccccc1Nc1cccc(C(F)(F)F)c1
67 | O=C(C(=O)c1ccc(Cl)cc1)c1ccccc1
< 20 | Brc1cccc(Oc2ccccc2)c1
62 | CCOC(C(=O)c1ccccc1)c1ccccc1 (centres undefined)

The remaining lines, values behind:

Compound | melting point [°C]
CCCC(=O)Oc1c[nH]c2cc(Cl)ccc12 | 98 to 102
C#CCCCCCCCCCCCCCC | 15
O=C(NC(=O)c1c(F)cccc1F)Nc1ccc(Oc2ccc(C(F)(F)F)cc2Cl)cc1F | 167
CN(C)S(=O)(=O)Oc1ccc(C#N)cc1 | 70 to 73
O=C(O)C(=O)CBr | 79 to 82
Cc1c(C)c(C)c(C=O)c(C)c1C | 146 to 148
COc1cc(C=C[N+](=O)[O-])ccc1OCc1ccccc1 | 123
CC12C=CC3=C4CCC(=O)C=C4CCC3C1CCC2O (centres undefined) | 93
CCCCCCOC(=O)CCC | -78
CC12C=C(C=O)C(=O)C=C1CCC1C2C(O)CC2(C)C1CCC2(C)O (centres undefined) | 210
NCCN(CCN)N(O)N=O | 98 to 106
CNCC(O)c1ccc(O)c(O)c1 (centres undefined) | 218
COC(=O)c1cccc(CBr)c1 | 44
CC(=O)OCc1ccc(C=O)o1 | 52 to 56
CCC(C)(CC)C(C)(C)C | -42.5
CCOC(O)C(OC(C)=O)C(OC(C)=O)C(OC(C)=O)C(COC(C)=O)OC(C)=O (centres undefined) | 132
CC(S)C(=O)NCC(=O)O (centres undefined) | 96
CSc1nccc(-c2ccc(S(=O)(=O)Cl)s2)n1 | 129 to 131
CCOC(=O)c1c[nH]c2c(OC(F)(F)F)cccc2c1=O | 235 to 240
Nc1cc(Br)cc2cc[nH]c12 | 105
CC12CCC3C(CCC4=CC(=O)CCC43C)C1CCC2=O (centres undefined) | 170 to 171
CCOC(=O)c1cc(-c2cccs2)nn1C | 72 to 73

Compound | melting point [°C]
O=C(Nc1nnc(-c2ccc(Cl)cc2)o1)c1ccc(Cl)cc1 | 278 to 279
Brc1cccc(-c2cnco2)c1 | 59 to 61
C1CCN(C2CCNCC2)CC1 | 68
Cc1ccc(F)c(C=O)c1Cl | 46 to 50
N#Cc1ccc(N)c(Cl)c1 | 101
O=[N+]([O-])C(Br)C(Br)c1cccc(C(Br)C(Br)[N+](=O)[O-])c1 (centres undefined) | 147
Sc1nc2cccnc2s1 | 300
Oc1cccc(F)c1F | 36
CCC[C@H]1CCC[C@H]1C (relative stereo) | -104
CC(C)(C)OC(=O)N1CCCC(Oc2ccccc2[N+](=O)[O-])C1 (centres undefined) | 74 to 75
O=C(O)C#CC(=O)O | 180 to 187
Oc1cc(C(F)(F)F)nc2ccc(Cl)cc12 | 280 to 289
CCCCCCCCCCCCCCCCCC(=O)OCCC | 28.9
Cn1ccc2cc(N)ccc21 | 102 to 103
O=[N+]([O-])c1ccc2ccccc2c1 | 79
Cc1ccsc1C=CC1=NCCCN1C | 240
CC(C)(C)OC(=O)N1OC1c1ccc(C#N)cc1 (centres undefined) | 57 to 63
CCC/C=C/CCCCCC | -63.7
CCn1nc(C)c(Br)c1C(=O)O | 158 to 162
Cc1onc(-c2c(Cl)cccc2Cl)c1C(=O)O | 223
O=C(CBr)Oc1ccc([N+](=O)[O-])cc1 | 86
Oc1cc(C(F)(F)F)nc2c(F)cccc12 | 113

Compound | melting point [°C]
O=C1c2ccccc2C(=O)N1CCOCCO | 64
Nc1ccccc1/C=C/c1cc(/C=C/c2cccc([N+](=O)[O-])c2)c([N+](=O)[O-])cc1[N+](=O)[O-] | 250
NNc1ccc(F)c(Cl)c1 | 74
CCCCNc1cc(=O)oc2ccccc12 | 118
Cc1cc(C(F)(F)F)n2nc(N)c(/N=N/c3cc(Cl)c(Cl)cc3Cl)c2n1 | 228
C=CCCC(=C)C | -129
CCCC/C=C/CCCCC | -61.1
Cc1ccc(S(=O)(=O)OC2CCC3(C)C(CCC4C5CCC(=O)C5(C)CCC43)C2)cc1 (centres undefined) | 164 to 166
O=C(O)CCc1ccc(F)cc1 | 90
CC1(C)OC(C)(C(O)C2CCCCC2)CCC1C(=O)O (centres undefined) | 181
COC(=O)c1ccnc(N)c1 | 147
CCOC(=O)/C(C#N)=C/c1ccc(-c2ccc(Br)cc2)o1 | 167
CCCC(C)CCC | -121
Cc1cc(N=Nc2ccc(N)cc2)c(C(C)C)cc1N=Nc1ccc(N)cc1 | 177
O=C(O)c1cc(I)c(O)c(I)c1 | 237
O=Cc1ccc(OCc2ccc(Cl)c(Cl)c2)cc1 | 92 to 93
CC(C)(C)[N+]([O-])=Cc1ccccc1 | 71 to 75
CCCCC(O)(Cn1cncn1)c1ccc(Cl)cc1Cl (centres undefined) | 111
COc1c(Br)ccc2c1C(=NNc1ccc([N+](=O)[O-])cc1[N+](=O)[O-])C2 | 309 to 310
CC(C)(C)NCC(O)COc1cc(Cl)ccc1Cl (centres undefined) | 82
